How the values were obtained:
[1] = tested on: collagen-induced arthritis mouse model; assay: Collagen-induced arthritis (CIA) mouse model: in-life disease score, paw thickness; format: in vivo, mouse (DBA/1J); conditions: for change in group average disease score - mean, Day versus Day 21 (start of treatment): Tofacitinib 15 mg/kg PO BID from D21
[2] = tested on: collagen-induced arthritis mouse model; assay: Collagen-induced arthritis (CIA) mouse model: histopathology of tibiofemoral and tarsal/phalangeal joints; format: in vivo, mouse (DBA/1J)
[3] = tested on: TLR2 signaling in primary human umbilical vein endothelial cells; assay: Cytokine response to TLR2 agonism (Pam3CysK4) in primary HUVEC (ELISA); format: cell-based; conditions: for IL-8 response to TLR2 (Pam3CysK4) stimulation, in words: summary of Table 22
From the text: It has been reported in the literature that that ERK5 mediates TLR2-dependent inflammatory signaling in several cell types including human umbilical vein endothelial cells (HUVEC). See Wilhelmsen et al., J Biol Chem. 2012; 287:26478-94. Wilhelmsen et al. further reported that MEK1 negatively regulates TLR2 signaling in HUVECs, with pharmacological inhibition of MEK1 augmenting (IL-6, G-CSF, GM-CSF) or not changing (IL-8) pro-inflammatory cytokine release in response to TLR2 stimulation.
(§1) In this example, the following commercially available inhibitors were tested:
(§2) The results were compared with test compound 61.
(§3) Pooled primary human umbilical vein endothelial cells (HUVEC) were obtained from Lonza (Allendale, N.J.) and maintained in either complete EGM-2 defined media (Lonza) or Medium 200 supplemented with Low Serum Growth Supplement (Life Technologies, Grand Island, N.Y.). Cells at low passage (<5) were seeded at 4e5 cells/ml and allowed to adhere overnight at 37° C. in a humidified atmosphere at 5% CO2. Cells were pre-treated with test compounds for 1 h prior to TLR2 or TLR4 stimulation. To test for the effects of TLR2 agonism, the TLR2 agonist peptide Pam3CysK4 (Santa Cruz Biotechnology, Dallas, Tex.) was used at 10 μg/ml. PHC-SKKK (Enzo Life Sciences, Farmingdale, N.Y.) served as the negative control peptide. To test for the effects of TLR4 agonism, LPS from E. coli 0111:B4 (EMD Millipore, Billerica, Mass.) was used at 100 ng/ml. Cells were incubated for 22 hr, after which the supernatant was collected and analyzed for cytokine concentrations by ELISA (Life Technologies). Absorbance at 450 nm was read using the Wallac 1420 Victor^2 multilabel microplate reader (Perkin Elmer, Waltham, Mass.).

[4] = tested on: TLR4 signaling in primary human umbilical vein endothelial cells; assay: Cytokine response to TLR4 agonism (LPS) in primary HUVEC (ELISA); format: cell-based; conditions: for IL-8: 22 hr; for IL-6 response, in words: summary of Table 24
Protocol: as §1, §2, §3

[5] = tested on: primary asthmatic human bronchial epithelial cells; assay: IL-17A- or IL-17F-mediated cytokine response by primary asthmatic human bronchial epithelial cells; format: cell-based; conditions: Epithelial cell, 0.25 μM, positive control, data not shown, read-out: inhibition of measured cytokines
Protocol: The virally immortalized, normal human bronchial epithelial cell line BEAS-2B was purchased from ATCC (Manassas, Va.). Primary bronchial epithelial cells isolated from a patient diagnosed with asthma were obtained from Lonza (Allendale, N.J.). Both cells were maintained in complete Bronchial Epithelial Cell Growth Medium (BEGM) (Lonza). Cells were seeded at 1e5 cells/ml and incubated at 37° C. in a humidified atmosphere at 5% CO2 overnight to adhere. Cells were pre-treated with test compounds (10 μM down by ⅕ in a 3- or 4-point serial dilution series) for 1 h at 37° C. in a humidified atmosphere at 5% CO2. DMSO at a final concentration of 0.1% served as the non-inhibited control. Budesonide (Selleck Chemicals, Houston, Tex.), a clinically approved glucocorticoid steroid for the treatment of asthma, was tested as a positive control at 0.25 μM. Cells were stimulated with 50 ng/ml of either human recombinant IL-17A or IL-17F (eBioscience, San Diego, Calif.), for 48 h. Supernatant was then collected and analyzed for cytokine concentrations using the Bio-Plex Pro Human Cytokine 17-Plex Panel (Bio-Rad Laboratories, Hercules, Calif.) according to the manufacturer's instructions. Magnetic beads were measured on the Bio-Plex MAGPIX multiplex reader instrument using the accompanying xPONENT 4.2 acquisition software (Bio-Rad Laboratories). Data were analyzed via the Bio-Plex Manager software v6.1 (Bio-Rad Laboratories). For the primary asthmatic bronchial epithelial cells, five (+IL-17F) to thirteen (+IL-17A) cytokines were in range of detection under the conditions used. […] Select cytokines were analyzed for comparison using the BEAS-2B cell line.
BLQ: cytokine levels were below limits of quantitation.

[6] = Group 2 (n=10): Tofacitinib 15 mg/kg PO BID D21-D42
[7] = Group 2: Tofacitinib 15 mg/kg PO BID D21-D42
[8] = 5 μM inhibitor, +10 μg/ml PHC-SKKK (negative control peptide), 22 hr
[9] = 5 μM inhibitor, +10 μg/ml Pam3CysK4, 22 hr
[10] = 10 μM inhibitor, +100 ng/ml LPS
[11] = 10 μM inhibitor, No Stimulation

In the case of `C[C@@H]1CCN(C(=O)CC#N)C[C@@H]1N(C)c1ncnc2[nH]ccc12` [Tofacitinib, reference compound], the “change in group average disease score - mean, Day versus Day 21 (start of treatment)” value (from here on “change in group average disease score”) ([1]; Day 21) was 0.0, the “change in group average disease score” value ([1]; Day 24) was 0.3 and the “change in group average disease score” value ([1]; Day 26) was 0.9. For the same molecule, the “change in group average disease score” value ([1]; Day 28) was 1.8, the “change in group average disease score” value ([1]; Day 31) was 2.3 and the “change in group average disease score” value ([1]; Day 33) was 2.6. The “change in group average disease score” value ([1]; Day 35) was 2.7, the “change in group average disease score” value ([1]; Day 37) was 2.2 and the “change in group average disease score” value ([1]; Day 39) was 2.5. The “percent reduction in overall disease and total paw scores” value ([1]; treatment Day 21-42, Tofacitinib 15 mg/kg BID PO, doses in Table 28) was “about 55%”, the “histopathology of hind-limb joints (knee, paw/tarsal), in words” value ([2]; Day 42, H&E) was “less effective at mitigating cartilage and periosteal erosion at the knee and ulceration and synovial hyperplasia than 46” and the “Animals with normal tarsal joints (% of total n in group)” value [2, 6] was 40%. For the same molecule, the “Number of animals with normal tarsal joints” value [2, 6] was 4, the “Tibiofemoral joint score: cartilage erosion/ulceration” value [2, 7] was 16.3 and the “Tibiofemoral joint score: inflammation” value [2, 7] was 16.3. For the same molecule, the “Tibiofemoral joint score: periosteal proliferation/erosion” value [2, 7] was 7.8 and the “Tibiofemoral joint score: synovial hyperplasia” value [2, 7] was 5.0.

`O=C(NC[C@H](O)CO)c1ccncc1Nc1ccc(I)cc1F` [AS703026] was tested, and the “IL-8” value [3, 8] was 0 ± 23 pg/mL, the “IL-8” value [3, 9] was 732 ± 36 pg/mL and the “IL-8 response to TLR2 (Pam3CysK4) stimulation, in words” value (“IL-8 response to TLR2” below) [3] was “moderate IL-8 augmentation”. For the same molecule, the “IL-8” value ([4]; 5 μM inhibitor, +100 ng/ml LPS) was 1970 ± 126 pg/mL, the “G-CSF” value [4, 10] was 90 ± 13 pg/mL and the “IL-6” value [4, 10] was 1368 ± 169 pg/mL. For the same molecule, the “G-CSF” value [4, 11] was 30 ± 1 pg/mL, the “IL-6” value [4, 11] was 529 ± 20 pg/mL and the “IL-6 response, in words” value [4] was “Cytokine augmentation was observed”.

With `C[S+]([O-])c1ccc(-c2nc(-c3ccncc3)c(-c3ccc(F)cc3)[nH]2)cc1` (stereo not drawn) [SB203580] the “IL-8” value ([3]; 10 μM inhibitor, +10 μg/ml PHC-SKKK (negative control peptide), 22 hr) was 54 ± 12 pg/mL, the “IL-8” value ([3]; 10 μM inhibitor, +10 μg/ml Pam3CysK4, 22 hr) was 450 ± 23 pg/mL and the “IL-8 response to TLR2” value [3] was “reduced the IL-8 response”. For the same molecule, the “G-CSF” value [4, 10] was 318 ± 33 pg/mL, the “IL-6” value [4, 10] was 112 ± 10 pg/mL and the “IL-8” value [4, 10] was 1526 ± 54 pg/mL. For the same molecule, the “G-CSF” value [4, 11] was 7 ± 9 pg/mL, the “IL-6” value [4, 11] was 18 ± 5 pg/mL and the “IL-6 response, in words” value [4] was “reduced”.

For `CCOc1cc(N2CCC(O)CC2)ccc1Nc1ncc2c(n1)N(C)c1ccccc1C(=O)N2C` [XMD8-92], the “IL-8” value [3, 8] was 0 ± 25 pg/mL, the “IL-8” value [3, 9] was 199 ± 11 pg/mL and the “IL-8 response to TLR2” value [3] was “reduced the IL-8 response”. The “G-CSF” value ([4]; 5 μM inhibitor, +100 ng/ml LPS) was 111 ± 6 pg/mL, the “IL-6” value ([4]; 5 μM inhibitor, +100 ng/ml LPS) was 170 ± 21 pg/mL and the “IL-8” value ([4]; 5 μM inhibitor, +100 ng/ml LPS) was 1249 ± 42 pg/mL. For the same molecule, the “G-CSF” value ([4]; 5 μM inhibitor, No Stimulation) was 0 ± 1 pg/mL, the “IL-6” value ([4]; 5 μM inhibitor, No Stimulation) was 20 ± 1 pg/mL and the “IL-6 response, in words” value [4] was “reduced”.

`CCCC1O[C@@H]2C[C@H]3[C@@H]4CCC5=CC(=O)C=C[C@]5(C)[C@H]4[C@@H](O)C[C@]3(C)[C@]2(C(=O)CO)O1` (stereo partly drawn) [Budesonide, reference compound] was tested, and the inhibition at […] [5] was < 50%.
